Literature values, collected in patent US12496345B2, “Method of treating cancer” (Intensity Therapeutics, Inc., priority 2012, dated 2025).

Key:
[1] = not given; remark: listed apart in the source
[2] = not given; remark: listed apart in the source

Row | Compound | oral absorption (in vivo, po) | pH of a 1% solution [1] | oral bioavailability (carboplatin alone, highly variable) | soluble in water [2]
1 | O=c1[nH]cc(F)c(=O)[nH]1 [5-FU, fluorouracil] | not orally absorbed | – | – | –
2 | N.N.O=C([O-])C1(C(=O)[O-])CCC1.[Pt+2] [Carboplatin, platinum, diammine [1,1-cyclobutane-dicarboxylato (2−)-0,0′]-(SP-4-2)] | – | 5-7 | approximately 4% | approximately 14 mg/mL
